Results as given in publication PMC12406664, “New derivatives of 6-nitrocoumarin-3-thiosemicarbazone exhibit improved antiparasitic activity in the placenta against Trypanosoma cruzi and Toxoplasma gondii” (Antimicrobial Agents and Chemotherapy, 2025).

Experiments:
[1] = test system: human placental explants (HPE); test: Histopathology of uninfected HPE exposed to the compounds alone; settings: explants incubated only with the compound, 24 h, IC50 concentration
Experimental: The HPE was fixed in 10% formaldehyde in 0.1 M phosphate buffer (pH 7.3) for 24 h, dehydrated in alcohol, clarified in xylene, embedded in paraffin, and sectioned at 3 µm. Paraffin histological sections were stained with hematoxylin-eosin for routine histological analysis, Picro Sirius red, and trichromic Masson for collagen histochemistry. Sections for the histological analysis were observed under an optical microscope (Leica DM500) and images were captured with a Leica ICC50 W camera ([7], [91]).

[2] = test system: T. gondii (RH strain) in BeWo cells; test: Infection of BeWo cells by T. gondii, infected cells counted by fluorescence microscopy; assay type: cell-based, Toxoplasma gondii; settings: compound at IC50, untreated control 64 ± 6
Experimental: The effect of the compounds on the infection of BeWo trophoblast cells by T. gondii and T. cruzi was assessed. The DNA of T. gondii and T. cruzi was quantified in infected BeWo cells treated for 24 hours under two conditions: co-incubation and post-infection treatment. […] Fluorescence microscopy was employed to quantify the number of infected cells. The resulting images were analyzed using ImageJ software to count both infected and uninfected cells.
For the microscopic analysis of BeWo cells infected with T. cruzi, the cells were washed with PBS to remove the supernatant, fixed with 90% cold methanol, rewashed with PBS, and incubated for 5 minutes with 1 µg/mL—1 4,6-diamidino-2-phenylindole (DAPI) (Molecular Probes). To analyze BeWo cells infected with T. gondii, cells were fixed with 90% cold methanol, washed with PBS containing 0.05% Tween, and blocked using 3% BSA for 1 hour at 37°C. Then, they were incubated with the primary monoclonal antibody Toxoplasma gondii (TP3): sc-52255 at a dilution of 1:500 with 1% BSA overnight at 4°C. Afterward, the samples were incubated with the FITC anti-mouse IgG secondary antibody at a dilution of 1:100 with 1% BSA for 1 hour at 37°C. Finally, they were washed with PBS containing 0.05% Tween and incubated for 5 minutes with DAPI. Subsequently, the sections were mounted in Vectashield (ScyTek ACA). Sections for the analysis of cell infection by T. cruzi and T. gondii were observed under an epifluorescence microscope (Motic BA 310), and images were captured with a Motic 5 camera. T. cruzi amastigotes were identified by their morphology, including nuclear size and the presence of a kinetoplast, and were analyzed and quantified using ImageJ. At least 500 cells per condition were analyzed, and infected and non-infected cells were counted for every 100 cells ([35], [70]).
(§1) Cells or HPE were exposed to parasites. […] The following treatment conditions were used in both infection models. […] Untreated cells or HPE served as a negative control, and the compounds’ activity was compared with the reference drugs (NFX and PMN).

[3] = Cyclic voltammetry, reduction potentials in DMSO (HDME, vs. Ag/AgCl); settings: 2.00 V/s
Experimental: Electrochemical studies were carried out on a Metrohm Autolab instrument model PGSTAT204, using dimethyl sulfoxide (DMSO) as the solvent (1 mM solutions), tetrabutylammonium perchlorate (0.1 M TBAP) as the supporting electrolyte, a hanging drop mercury electrode (HDME) as the working electrode, Ag/AgCl (3M KCl) as the reference electrode and a graphite rod as the counter electrode. All measurements were performed after bubbling with nitrogen (N2) for 10 minutes.

[4] = test system: T. gondii (RH strain) in BeWo cells; test: T. gondii DNA load in infected BeWo cells by real-time qPCR; assay type: cell-based, Toxoplasma gondii; settings: IC50 concentration
Experimental: as §1
Subsequently, cells were exposed to parasites at a 1:1 ratio (cell: parasite) for 24 hours. Finally, the cells were washed with PBS and harvested using trypsin. For the parasitic DNA load in the ex vivo infection model, HPE was incubated in 24-well plates and exposed to parasites at a concentration of 10^5 parasites/mL for 24 hours. Finally, they were washed with PBS and homogenized using the ultraturrax homogenizer OMNI TipTM. Genomic DNA was extracted from BeWo cells or HPE using the Wizard Genomic DNA Purification Kit (Promega, USA) following the manufacturer’s instructions. The resulting DNA was quantified using a μDrop Plate DNA quantification system on the Varioskan Flash multimode reader (Thermo Scientific, USA). For the amplification of human DNA and parasitic DNA, three pairs of primers specific for human GAPDH (hGADPH), T. cruzi satellite DNA, and T. gondii B1 gene DNA were used (Table 7). Each reaction mixture contained 0.5 µL of 10 nM of each primer (Forward and reverse), 1 ng of DNA from T. cruzi samples, 10 ng of DNA from T. gondii samples, 10 µL of SensiFASTTM SYBR Hi-ROX kit (Bioline, Heidelberg, Baden Württemberg, Germany), and ultrapure water (Sigma-Aldrich, St. Louis, MO, USA) for a total of 20 µL.
Amplification was carried out using the CFX96 Touch Deep Well Real-Time PCR Detection System (Biorad, California, USA) with the following cycling program: initial denaturation at 95°C for 3 min, followed by 40 cycles of denaturation at 95°C for 5 s, annealing at 60°C for 30 s, and a dissociation stage ranging from 60°C to 95°C. The relative quantification analysis of the results was expressed as RQ values using the comparative […] (∆∆Ct) ([80]).

[5] = Cytotoxicity on cells (resazurin), EA.hy926; assay type: cell-based; settings: human, EA.hy926 endothelial cells
Excerpt: Triton X-100 was used as a positive control, and untreated cells served as a negative control. In addition, the maximum concentration of DMSO was used as a control for the method. […] The obtained values were expressed as IC50([88]).

[6] = test system: T. gondii tachyzoites (strain RH); test: Intracellular ROS generation (DCF probe) in T. gondii; assay type: cell-based, Toxoplasma gondii; settings: compound at IC50, menadione 20 µM, 40 minutes, vs untreated control
Experimental: ROS detection was performed using the 2′,7′-dichlorodihydrofluorescein diacetate (DCFH2-DA) method ([45]). For the assay, Dm28c trypomastigotes and tachyzoites were seeded in 96-well plates at a density of 10⁶ parasites/mL. In contrast, BeWo cells were seeded at 5 × 10⁴ cells per well, using the previously described culture medium.
After incubation with 20 µM DCFH2-DA for 15 minutes at 37°C, the parasites were centrifuged at 3,500 × g, washed twice with PBS (pH 7.4), and subsequently transferred to Nunc 96-well fluorescence plates. Meanwhile, after 24 hours of incubation at 37°C and 5% CO₂, the culture medium of BeWo cells was replaced, and 20 µM DCFH2-DA solution was added, followed by a 15 minute incubation at 37°C. The cells were then washed with PBS at pH 7.4. As a positive control, 20 µM menadione was used, while the negative control consisted of culture medium without compounds.
Over time, the area under the fluorescence increase curve was determined using Origin 8 software (version 9.2), with normalization relative to the control. The results correspond to three independent experiments' mean ± standard deviation (SD).

## C/C(=N\NC(N)=S)c1c(O)c2cc([N+](=O)[O-])ccc2oc1=O [Compound 1, (E)−2-(1-(4-hydroxy-6-nitro-2-oxo-2H-chromen-3-yl)ethylidene)hydrazine-1-carbothioamide]
[1]
  tissue damage caused by the compound itself in HPE: neither compound induced tissue damage
[2]; co-incubation 24 h
  Infected cells (%): 32 ± 7%
[2]; post-infection treatment 24 h
  Infected cells (%): 52 ± 4%
[3]; anodic peak IIa
  E(pIIa): −0.98 V
[3]; cathodic peak Icb, nitro reduction
  E(pIcb): ~−0.99 V
[4]; co-incubation
  decrease in parasite DNA load: around 50%
[4]; post-infection treatment
  effect on parasite DNA load: no activity against the intracellular form
[5]
  CC50 at 24 h: > 400 µM
[6]
  ROS generation (DCF fluorescence): increase in ROS levels, albeit lower than the positive control
